In patent US20230405134A1, “NOVEL PROTAC CHIMERIC COMPOUND, AND PHARMACEUTICAL COMPOSITION COMPRISING SAME FOR PREVENTING, AMELIORATING, OR TREATING DISEASES THROUGH TARGET PROTEIN DEGRADATION” (POSTECH RESEARCH AND BUSINESS DEVELOPMENT FOUNDATION, priority 2020, published 2023):
Where a SMILES comes first, the peptide text is derived from it. Bridges are numbered along the chain shown (N, C = ends). [ ]: non-standard residue; d: D form. Cha = N[C@@H](CC1CCCCC1)C(=O)O; S5 = C=CCCC[C@](C)(N)C(=O)O

Experiments:
[1] = target: T1, UBR box (Saccharomyces cerevisiae, UniProt P19812); test: Competitive fluorescence polarization (FP) assay against fluorescein-labeled RLAA peptide; format: binding, S. cerevisiae
T1 construct: UBR box (residues 113-194) in the UBR1 E3 ubiquitin ligase of S. cerevisiae; made in house
T1 sequence (P19812 113-194): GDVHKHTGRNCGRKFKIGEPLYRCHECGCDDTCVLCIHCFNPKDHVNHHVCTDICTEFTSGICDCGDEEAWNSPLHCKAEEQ
Protocol: (§1) An expression plasmid of the PAS-B domain of human SRC-1 (residues 257-385) tagged with His6 was provided by Professor John. A. Robinson. (ChemBioChem 2008, 9, 1318-1322). The plasmid was transformed into BL21 (DE3) pLysS cells, and the protein was cultured in Luria-Bertani broth medium and induced with 0.5 mM IPTG at 18° C. for 16 hours. Cell disruption was performed by ultrasonic treatment in a buffer (50 mM Tris-HCl pH 8.0, 200 mM NaCl and 1 mM TCEP), and insoluble materials were removed by centrifugation. HisTrap™ column (GE Healthcare, 17-5255-01) chromatography was performed on the buffer and 500 mM of imidazole was applied for elution. In order to remove the His6-tag, TEV protease was used and the cleaved samples were loaded in HisTrap™ as described above. The SRC-1 was further purified by size exclusion chromatography (HiLoad™ 16/600 Superdex 75 pg) in a final buffer of 20 mM Tris-HCl pH 7.5, 150 mM NaCl and 1 mM TCEP. The expression and purification of the UBR box (residues 113-194) in the UBR1 E3 ubiquitin ligase of S. cerevisiae was performed in the previous manner. (Nat. Struct. Mol. Biol. 2010, 17, 1175-1181).
A competitive fluorescence polarization (FP) assay was performed to evaluate the binding affinity of ND1-YL2 to the target protein. A fluorescently labeled 15-mer STAT-6 peptide (100 nM) was cultured with the PAS-B domain (5 μM) of SRC-1 in a binding buffer (50 mM HEPES, pH 7.4, 150 mM NaCl, and 0.01% Tween 20). After being placed in black Costar 384-well plates for 30 minutes, they were treated with various concentrations of YL2 and ND1-YL2. After further incubation for 1 hour, the polarization of fluorescence was measured by a Tecan F200 microplate reader (excitation wavelength: 485 nm; emission wavelength: 535 nm). IC50 values were determined using non-linear regression and fitted with GraphPad Prism® 4 software using the following equation: Y=Bottom+(Top-Bottom)/(1+10^X-LogIC50) (FIG. 11A). […] The binding affinity was calculated as described above (FIG. 11B).

[2] = target: T2, SRC-1/ND1-YL2/UBR box (UniProt P19812+Q15788); test: SEC-MALS ternary complex formation; format: binding; conditions: SRC-1 alone 20 kDa, UBR box alone 12 kDa
T2 construct: PAS-B domain of human SRC-1 (residues 257-385) tagged with His6; UBR box (residues 113-194) in the UBR1 E3 ubiquitin ligase of S. cerevisiae; His6 (cleaved yes); made in house; host or cells: E. coli BL21 (DE3) pLysS (SRC-1 PAS-B)
T2 sequence (Q15788 257-385): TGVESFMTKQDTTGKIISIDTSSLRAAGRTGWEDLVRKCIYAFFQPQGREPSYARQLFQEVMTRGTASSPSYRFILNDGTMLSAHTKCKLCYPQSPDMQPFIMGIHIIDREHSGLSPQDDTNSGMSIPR
T2 sequence (P19812 113-194): T1 sequence (P19812 113-194)
Protocol: as §1, with “The expression and purification of the UBR box (residues 113-194) in the UBR1 E3 ubiquitin ligase of S. cerevisiae was performed in the previous manner. (Nat. Struct. Mol. Biol. 2010, 17, 1175-1181).” left out
The next step was to confirm whether ND1-YL2 could indeed form a ternary complex. […] Light scattering and differential refractive index data were collected and analyzed using ASTRA®V software (Wyatt Technology) (FIG. 12A). The individual molecules SRC-1 and UBR box had molecular masses of 20 and 12 kDa, respectively, and were detected to be 40 kDa in the presence of ND1-YL2, which is a result showing that a ternary complex was formed (FIG. 12A).

[3] = system: MDA-MB-231 cells; test: Gap closure migration assay; format: cell-based, human; conditions: 20 μM, 72 hours
Protocol: Based on the results that the SRC-1 degradation effectively affects the transcription mediated by SRC-1 (FIGS. 18A and 18B), it was predicted that ND1-YL2 would exert an inhibitory effect on downstream signaling pathways such as increased cancer cell migration and invasion. To test this, we first performed a gap closure migration assay using an invasive MDA-MB-231 cell line. MDA-MB-231 cells (70 μL of 4×10^5 cells/mL) were seeded in culture insert 2 wells (ibidi, 80209) pre-inserted into p-dishes (ibidi) under the conditions of 37° C. and 5% CO2. The culture insert 2 wells was gently removed with sterile tweezers. The cells were treated with DMSO, YL2 (20 […]), RLAA (20 μM) or ND1-YL2 (20 μM) in Opti-MEM medium for 72 hours. Images were obtained by a camera (Olympus) attached to an optical microscope. The cells were grown in the culture insert wells, and the inserts were removed to create intercellular gaps inside the wells. Subsequently, after treated with DMSO, YL2, RLAA peptide or ND1-YL2, the cells were cultured for 72 hours and the degree of cell migration was observed. The cell migration was quantified by analyzing the images of cells filling the gap.

SMILES: CC(C)C[C@H](NC(=O)[C@H](C)NC(=O)[C@H](C)NC(=O)[C@H](C)NC(=O)[C@H](C)NC(=O)[C@H](CC(C)C)NC(=O)[C@@H](N)CCCNC(=N)N)C(=O)N[C@@H](CC(C)C)C(=O)N1CCC[C@H]1C(=O)N1CCC[C@H]1C(=O)N[C@H](C(=O)N[C@@H](CCC(=O)O)C(=O)N[C@@H](CCC(N)=O)C(=O)N[C@@H](CC(=O)O)C(=O)N[C@@H](CC(C)C)C(=O)N[C@@]1(C)CCC/C=C\CCC[C@@](C)(C(=O)N[C@@H](Cc2ccc(O)cc2)C(N)=O)NC(=O)[C@H](CC2CCCCC2)NC(=O)[C@H](CC(C)C)NC(=O)[C@H](CCCCN)NC1=O)[C@@H](C)O [ND1-YL2] (H-RLAAAALLPPTEQDL[S5]KL[Cha][S5]Y-NH2; staple (Z) 16-20)
- Improved affinity for the UBR box compared to the RLAA tetrapeptide [1]: approximately 3 fold
- Ki [1]: 1480 nM
- Difference in binding affinity for target E3 ligase compared to CL1-YL2 ([1]; ND1-YL2 binds less strongly to its E3 ligase than CL1-YL2): ~10 fold
- Molecular mass detected for SRC-1 and UBR box in the presence of compound [2]: 40 kDa
- Existing gaps maintained (cell migration) [3]: about 80%
